Results on 2 compounds are retold here after patent publication US20210244728A1, “Method of treating peripheral neuropathy” (Chemedest Ltd., priority 2012, published 2021).

Series [1] deals with spinal nerve-ligated rats. The series can be described thus: Von Frey test in Chung model (spinal nerve ligation) of neuropathic pain. It is filed as in vivo. As to conditions: for Signs of sedation or toxicity: during pretreatment or testing. From the text: The study was designed to evaluate the analgesic efficacy of test compounds in the rat Chung model of neuropathic pain.
Male Sprague Dawley rats (100-125 g) from Harlan (Indianapolis, Ind.) were used in the study. Upon receipt, rats were assigned unique identification numbers and were group housed with 3 rats per cage in polycarbonate cages with micro-isolator filter tops. All rats were examined, handled, and weighed prior to initiation of the study to assure adequate health and suitability. During the course of the study, 12/12 light/dark cycles were maintained, with lights on at 7:00 am EST. The room temperature was maintained between 20 and 23° C. with a relative humidity maintained around 50%. Chow and water were provided ad libitum for the duration of the study.
Reference compound: Gabapentin (100 mg/kg; TRC, Lot No. 1-SWM-154-1) was dissolved in saline and administered acutely on test day (day 8 or 12) 1 hour prior to testing, at a dose volume of 1 ml/kg, p.o.
Test compounds: CHM-65 (5, 15 and 25 mg/kg, Q.D., Lot n/a) was dissolved in sterile injectable saline and administered subcutaneously on days 1, 3, 5 and 8 with the first administration (day 1) occurring 1 hour post-op. On day 8, compound was administered 1 hour prior to testing. The dose volume was 3 ml/kg.
CHM-36 (20 mg/kg, Q.D., Lot n/a) was dissolved in sterile injectable saline and administered subcutaneously on days 1, 3, 5 and 8 with the first administration (day 1) occurring 1 hour post-op. On day 8, compound was administered 1 hour prior to testing. The dose volume was 5 ml/kg.
Artemin (CHMB-1) (0.5 mg/kg, Q.D., Lot n/a) was administered subcutaneously on days 1, 3, 5, 8, 10 and 12 with the first administration (day 1) occurring 1 hour post-op. On day 12, compound was administered 1 hour prior to testing. The dose volume was 0.5 ml/kg.
Under general anesthesia with continuous inhalation of isoflurane, surgery was performed with aseptic procedures in surgery unit. Sterile ophthalmic ointment was used to lubricate the eyes. Animals were observed continuously for the level of anesthesia, testing for the animal's reflex response to tail or paw pinch and closely monitoring the animal's breathing. A heating pad was used to maintain body temperature at 37° C. while the animals recovered from anesthesia. The skin at the area of the lower lumber and sacral level of the rat was shaved and disinfected with betadine and alcohol. A left longitudinal incision at the level next to the vertebral column was made and the left paraspinal muscles were separated. The transverse process of L6 was removed and nearby connective tissue cleaned to expose L5 and L6 spinal nerves. After the nerves were isolated and clearly visualized, 4-0 silk threads were used to ligate the left L5. The muscles were sutured with 4-0 silk threads and the wound closed by staples. All rats received an analgesic (buprenorphine, 0.05 mg/kg, s.c.) immediately before and 6 hours after surgery. Each rat was monitored until awake and moving freely around the recovery chamber. Animals were then single-housed for the duration of the study. Rats began their chronic-treatment regimen (all test groups except gabapentin) 1 hour post-op on surgery day.
Withdrawal from a mechanical stimulus was measured by applying von Frey (VF) filaments of ascending bending force to the plantar surface of the hind paws (ipsilateral and contralateral). A positive response was defined as withdrawal from the von Frey filament. […]

A further series relates to sciatic-ligated rats. Kind of series: Von Frey test in Bennett model (chronic constrictive injury of the sciatic nerve) of neuropathic pain. It counts as in vivo, Male Sprague Dawley rats. From the text: The study was designed to evaluate the analgesic efficacy of compound XV (CHM-65) in the Bennett model of neuropathic pain.
Male Sprague Dawley rats (100-125 g) from Harlan (Indianapolis, Ind.) were used in the study. Upon receipt, rats were assigned unique identification numbers and were group housed with 3 rats per cage in polycarbonate cages with micro-isolator filter tops. All rats were examined, handled, and weighed prior to initiation of the study to assure adequate health and suitability. During the course of the study, 12/12 light/dark cycles were maintained, with lights on at 7:00 am EST. The room temperature was maintained between 20 and 23° C. with a relative humidity maintained around 50%. Chow and water were provided ad libitum for the duration of the study. […]
This surgery was performed according to Bennett and Xie (1988). […] Each rat was monitored until awake and moving freely around the recovery chamber. […]
Withdrawal from a mechanical stimulus was measured by applying von Frey (VF) filaments of ascending bending force to the plantar surface of the hind paws (ipsilateral and contralateral). […]
Data were analyzed by one-way analysis of variance (ANOVA) followed by Fisher PLSD post-hoc comparisons. […]

The test system of another series is animals. As to conditions: systemic administration in animals; cited from earlier work.
Series [2] has as its system peripheral neuron populations (dorsal root, trigeminal, nodose, superior cervical ganglia) and cultured fetal ventral mesencephalic DA neurons. As to conditions: cited from earlier work.
Series [3] concerns rats with SNL (spinal nerve ligation). As to conditions: repeated injection; cited from earlier work.

Take `NCC1(CC(=O)O)CCCCC1` [gabapentin, Gabapentin]: the “Signs of sedation or toxicity” value is reported as “not observed” in series [1] (CHM-36 study); “not observed” in series [1] (artemin study); “not observed” in the series on sciatic-ligated rats (during pretreatment or testing, Bennett model study). The “ipsilateral paw withdrawal threshold compared to vehicle” value in series [1] (gabapentin 100 mg/kg p.o., acute on test day, 1 hour prior to testing, CHM-36 study, FIG. 5) was “significantly increased”; in series [1] (gabapentin 100 mg/kg p.o., acute on test day, 1 hour prior to testing, artemin study, FIG. 7), “significantly increased”; with sciatic-ligated rats (gabapentin 100 mg/kg p.o., acute on day 12, 1 hour prior to testing, FIG. 3), “significantly increased”.

For “CHMB-1: GDNF family ligand artemin (ARTN), neurotrophic factor signalling through GFR α 3/RET”, in the series on animals, the “restoration of nociceptive and sensorimotor functions” value was “essentially complete and persistent restoration”. Moreover, the “ipsilateral paw withdrawal threshold compared to vehicle” value in series [1] (0.5 mg/kg s.c. on days 1, 3, 5, 8, 10 and 12, tested day 12, 1 hour after administration, FIG. 7) is listed as “significantly increased”. For the same compound, the “survival of peripheral neuron populations and cultured fetal ventral mesencephalic DA neurons” value in series [2] is “promote the survival”. Further, in series [3], the “behavioral responses to light touch and noxious thermal stimuli” value is “dose-dependent normalization”; the “behavioral signs of toxicity” value is “without producing behavioral signs of toxicity”.
